Laboratory results: patent US6800630B2, “Pyrimidine derivatives having antitumor effect” (Shionogi & Co., Ltd., priority 2000, dated 2004)
≈ marks a conversion by molar mass, not a printed value.

Tests used:
Assay type in all cases: cell-based
[1] = test system: DT-C cells (pGV-P transfected v-ki-ras-transformed NIH373 cells); test: Luciferase activity of DT-C control cells (IC50-C), index of non-specific transcription-inhibitory effect or cytotoxicity; details: tested concentration nearest to 50% inhibition in DT-C cells
Description: (§1) Test Example 1 Inhibitory effect against cellular signaling derived from Ras oncogene products
(§2) Based on the reporter plasmid (pGV-P (Toyo Ink, Japan)), in which luciferase gene was ligated to SV40-derived minimal promoter, we constructed a plasmid designated pRRE3-luc by inserting 3 copies of chemically synthesized oligonucleotides (Sequence: CAGGATATGACTCT, derived from mouse NVL-3 (M. A. Reddy et al.(1992)Mol. Endocrinol., 6, 1051)) into upstream of the promoter. v-ki-ras-transformed NIH373 cells (DT cells, provided by Dr. Makoto Noda (Kyoto Univ., School of medicine)) were transfected with this plasmid by liposome-mediated transfection and transfected cell lines stably incorporated and maintained each plasmid were obtained. We named pGV-P and pRRE3-transfected cell line as DT-C and DT-R, respectively and used in the assay described below.
(§3) i) All the cell lines were cultured in Dulbecco's Modified Essential Medium (DMEM: 10% Fetal Calf Serum(FCS: Hyclone, USA)) including […] kanamycin (Meiji Seika, Japan) in humidified incubator under condition of 5% CO2 at 37° C.
(§4) ii) DT-C and DT-R cells were seeded at 2500 cells/well into flat-bottom 96 well multiplate (Sumitomo bakelite) and incubated for 24 hours.
(§5) iii) Test compounds were prepared as 1 mg/ml DMSO solution.
(§6) iv) The solution of test compounds were added to the culture. Tested compounds are used at the concentration from […] to 0.51 ng/ml with 3-fold dilution.
(§7) v) After 24 hours, the culture supernatant was completely aspirated and 20 μl of cell-lysing solution (PGC-50 (Toyo Ink, Japan)) was added before cells were dried up. In order to lyse the cells completely, multiwell plates were left at room temperature for 10 to 30 min. The plates were wrapped up and stored at −20° C. till the day of measurement.
(§8) i) Melt the samples by putting 96 well multiplate at 37° C. and add 90 μl/well 25 mM Tris (pH 7.5).
(§9) ii) Transfer 50 μl of the sample (110 μl) to the 96 well microplate (Microlite 1 (Dynatech)) for measurement.
(§10) iii) Measure the samples by the luminometer, LUMINOUS CT9000D (Dia-Yatron, Japan). We used Pickagene luminescence kit PGL2000 or LT2.0 (Toyo Ink, Japan) as enzyme substrates for luminescence measurement (50 μl/well).
(§11) i) The luciferase activity of DT-C cells and DT-R cells were plotted in the graph where the relative activity and the compound concentration were expressed as Y-axis and X-axis, respectively. We judged by the degree of dissociation between the activities of DT-C cells and DT-R cells as an index.
b) Among the points of concentration tested, the concentration which is the nearest to 50% inhibition concentration at DT-C cells (IC50-C), was shown as an index of non-specific transcription-inhibitory effect or of cytotoxicity. In case of positive compounds, 50% inhibition concentration in DT-C cells which was higher than the active concentration was expressed as IC50-C.

human colon cancer HT29 = test: In vitro cell growth inhibition test, MTT assay; details: MTT assay 4 days after compound addition
Description: (§12) Test Example 2 In vitro cell growth inhibition test Cells and MTT assay
(§13) Human squamous lung cancer […], human squamous lung cancer Ma44, human lung adenocarcinoma A549, human colon cancer HT29 and human pancreas cancer PANC-1 were used.

[2] = test system: human lung adenocarcinoma A549; test: In vitro cell growth inhibition test, MTT assay; details: MTT assay 4 days after compound addition
Description: as §12, §13

[3] = test system: human pancreas cancer PANC-1; test: In vitro cell growth inhibition test, MTT assay; details: MTT assay 4 days after compound addition
Description: as §12, §13

[4] = test system: human squamous lung cancer Ma44; test: In vitro cell growth inhibition test, MTT assay; details: MTT assay 4 days after compound addition
Description: as §12, §13

[5] = test system: human squamous lung cancer RERF-RC-AI; test: In vitro cell growth inhibition test, MTT assay; details: MTT assay 4 days after compound addition
Description: as §12, §13

H460 = test: In vitro cell growth inhibition test, MTT assay; details: MTT assay 4 days after compound addition
Description: [The source words this procedure for another cell line and reports this cell line under the same test.] as §12, §13

[6] = test system: signal derived from Ras oncogene products (DT-R cells, pRRE3-luc transfected v-ki-ras-transformed NIH373 cells); test: Inhibitory effect against cellular signaling derived from Ras oncogene products: RRE-luciferase reporter, Minimal Active Concentration (MAC) at which DT-C and DT-R activities dissociate; details: minimal concentration at which luciferase activities of DT-C and DT-R cells dissociated
Description: as §1, §2, §3, §4, §5, §6, §7, §8, §9, §10, §11
ii) Concretely, efficacy of the compound was expressed by two values described below.
a) Among the points of concentration tested, the minimal concentration (Minimal Active Concentration: MAC), at which the activities of DT-C cells and DT-R cells dissociated, was shown as an index of efficacy of the compound.

| IC50 HT-29 (human colon cancer HT29) | IC50 A549 [2] | IC50 PANC-1 [3] | IC50 Ma44 [4] | IC50 RERF-LC-AI [5] | IC50 H460 (H460) | Structure (SMILES) | IC50 (IC50-C) [1] | MAC (Minimal Active Concentration) [6] |
| --- | --- | --- | --- | --- | --- | --- | --- | --- |
| 0.0081 µg/mL (≈ 0.0183 µM) | 0.0146 µg/mL (≈ 0.0329 µM) | 0.0065 µg/mL (≈ 0.0147 µM) | 0.0136 µg/mL (≈ 0.0307 µM) | 0.0073 µg/mL (≈ 0.0165 µM) | 0.0107 µg/mL (≈ 0.0241 µM) | CCCSC(=Nc1nc(C)ncc1CSc1nnc(-c2ccc(N)cc2)o1)NCC [Compound A-16] | >10 µg/mL | <0.000508 µg/mL |
| 0.015 µg/mL (≈ 0.035 µM) | 0.0174 µg/mL (≈ 0.0406 µM) | 0.0107 µg/mL (≈ 0.025 µM) | 0.0241 µg/mL (≈ 0.0562 µM) | 0.0132 µg/mL (≈ 0.0308 µM) | 0.015 µg/mL (≈ 0.035 µM) | CCCNC(=Nc1nc(C)ncc1CSc1nnc(-c2ccc(C)cc2)o1)SC [Compound A-17] | >10 µg/mL | 0.0412 µg/mL |
| 0.0004 µg/mL (≈ 0.000848 µM) | 0.0514 µg/mL (≈ 0.109 µM) | 0.0004 µg/mL (≈ 0.000848 µM) | 0.0004 µg/mL (≈ 0.000848 µM) | 0.0004 µg/mL (≈ 0.000848 µM) | 0.0275 µg/mL (≈ 0.0583 µM) | CCCNC(=Nc1nc(C)ncc1CSc1nnc(-c2ccc([N+](=O)[O-])cc2)o1)NN(C)C [Compound A-18] | >10 µg/mL | 0.00457 µg/mL |
